Publication PMC9269118, “Chemical Constituents of the Flowers of Pueraria lobata and Their Cytotoxic Properties” (Plants, 2022)

How the values were obtained:
[1] = tested on: immortalized human ovarian surface epithelial cell line IOSE80PC; assay: MTT cell viability assay, IOSE80PC; format: cell-based; settings: 48 h incubation, IOSE80PC cells
Text: (§1) To identify anti-tumor constituents in Pueraria Flos, we examined the effects of the 25 isolates on the cell viability of the human ovarian cancer A2780 cell line using the MTT assay. […] To further evaluate the effect of the compounds on the cell viability of non-malignant ovarian epithelial cells, we explored the cytotoxicity of the eight compounds (8, 10, 11, 12, 14, 16, 17, and 21) against the immortalized human ovarian surface epithelial cell line IOSE80PC.
(§2) Human ovarian endometrioid adenocarcinoma cell line A2780 and immortalized ovarian surface epithelial cell line IOSE80PC were provided by Dr. Ie-Ming Shih (Johns Hopkins School of Medicine, Baltimore, MD, USA) and Dr. N. Auersperg (University of British Columbia, Vancouver, British Columbia, Canada), respectively. The cells were cultured in Roswell Park Memorial Institute (RPMI) 1640 supplemented with 5% fetal bovine serum (FBS), penicillin (100 U/mL), and streptomycin sulfate (100 μg/mL) in a 5% CO2 and 95% air humidified atmosphere at 37 °C. RPMI 1640, FBS, streptomycin sulfate, and penicillin were procured from Life Technologies Inc. (Grand Island, NY, USA). The cells were seeded at a density of 1.0 × 10^5 cells/mL in a 96-well plate containing 50 μL of RPMI medium in each well and incubated for 24 h. Various concentrations of compounds dissolved in dimethyl sulfoxide (DMSO) were mixed with RPMI 1640 medium and added into cells in each well. […] Following 48 h incubation, 50 μL of MTT (Molecular Probes Inc., Eugene, OR, USA) solution was added into each well to achieve a final concentration of 0.5 mg/mL and then incubated for an additional 4 h. The medium was discarded, and the formazan blue that formed in the cells was dissolved in 50 μL of DMSO. The optical density was measured at 540 nm by microplate spectrophotometer (SpectraMax; Molecular Devices, Sunnyvale, CA, USA). […] IC50 is defined as the concentration that reduces cell number by 50% compared to control cultures.

[2] = tested on: human ovarian cancer cell line A2780; assay: MTT cell viability assay, A2780; format: cell-based; settings: 48 h incubation, A2780 cells
Text: as §1, §2

VEGF expression = tested on: VEGF expression; set-up: method as in PMID 19005980; settings: cited from earlier work
[3] = tested on: ovarian cancer cell line OVCAR3; set-up: method as in PMID 19005980; settings: cited from earlier work
[4] = tested on: ovarian cancer cell line A2780; set-up: method as in PMID 18974065, PMID 19447105; settings: by suppressing the expression of Id1 and focal adhesion kinase; cited from earlier work
[5] = tested on: breast cancer cell line MCF-7; set-up: method as in PMID 27784319, PMID 15787436; settings: cited from earlier work
LNCaP = tested on: LNCaP; set-up: method as in PMID 19026551; settings: cited from earlier work
[6] = tested on: colon adenocarcinoma (SW-480); set-up: method as in doi:10.1016/0031-9422(93)85369-3, PMID 24018191; settings: cited from earlier work
MCF-7 = tested on: MCF-7; set-up: method as in PMID 19026551; settings: cited from earlier work
Lu1 = tested on: Lu1; set-up: method as in PMID 19026551; settings: cited from earlier work
(HEK293) = tested on: (HEK293); set-up: method as in doi:10.1016/0031-9422(93)85369-3, PMID 24018191; settings: cited from earlier work
[7] = tested on: murine lymphocytic leukemia (P-388); set-up: method as in doi:10.1016/0031-9422(93)85369-3, PMID 24018191; settings: cited from earlier work

IC50 ([2]; Homo sapiens, A2780, 48 h) [µM]	Structure (SMILES)	IC50 ([1]; Homo sapiens, IOSE-80PC) [µM]	other results
–	COc1cc2c(=O)c(-c3ccc(O)cc3)coc2cc1O [Compound 16, glycitein]	> 100	–
–	N.N.[Cl][Pt][Cl] [Cisplatin, cisplatin, reference compound]	–	IC50 [1]: 12.8 ± 0.55 µM; IC50 [2]: 10.7 ± 0.81 µM
–	O=c1c(-c2ccc(O)cc2)coc2cc(O)cc(O)c12 [Compound 10, genistein]	> 100	VEGF expression in OVCAR3 (VEGF expression): downregulates VEGF expression; cell proliferation in OVCAR3 [3]: inhibits cell proliferation
> 100	COc1c(O[C@@H]2O[C@H](CO)[C@@H](O)[C@H](O)[C@H]2O)cc2occ(-c3ccc(O)cc3)c(=O)c2c1O [Compound 13, tectoridin]	–	–
> 100	C[C@@H]1O[C@@H](OC[C@H]2O[C@@H](OCc3ccccc3)[C@H](O)[C@@H](O)[C@@H]2O)[C@H](O)[C@H](O)[C@H]1O [Compound 22, hydrageifolin I]	–	–
19.4 ± 2.92	O=c1c(O)c(-c2ccc(O)c(O)c2)oc2cc(O)cc(O)c12 [Quercetin, quercetin, reference compound]	> 100	–
–	O=c1cc(-c2ccc(O)cc2)oc2cc(O)cc(O)c12 [Compound 8, apigenin]	> 100	proliferation and migration of A2780 [4]: inhibits the proliferation and migration
–	COc1ccc(-c2coc3cc(O)c(OC)cc3c2=O)cc1 [Compound 17, afromosin]	> 100	anticancer activity in MCF-7 [5]: anticancer activity
> 100	C[C@@H]1O[C@@H](OC[C@H]2O[C@@H](Oc3c(-c4ccc(O)cc4)oc4cc(O)cc(O)c4c3=O)[C@H](O)[C@@H](O)[C@@H]2O)[C@H](O)[C@H](O)[C@H]1O [Compound 9, nicotiflorin]	–	–
–	COc1c(O)cc2occ(-c3ccc(O)cc3)c(=O)c2c1O [Compound 11, tectorigenin]	> 100	–
< 100	COc1c(O)cc2occ(-c3ccc(O)c(O)c3)c(=O)c2c1O [Compound 12, irilin D]	> 100	IC50 [2]: 57.5 ± 3.08 µM; anticancer activity in MCF-7 [5]: anticancer activity
–	COc1cc([C@@H]2Oc3ccc(-c4cc(=O)c5c(O)cc(O)cc5o4)cc3O[C@H]2CO)ccc1O [Compound 21, (-)-hydnocarpin]	65.8 ± 1.6	cytotoxicity against LNCaP (LNCaP): no cytotoxicity; antiproliferative activity against SW-480 [6]: considerable antiproliferative activities; cytotoxicity against MCF-7 (MCF-7): no cytotoxicity; cytotoxicity against Lu1 (Lu1): no cytotoxicity; antiproliferative activity against HEK293 ((HEK293)): considerable antiproliferative activities; antiproliferative activity against P-388 [7]: considerable antiproliferative activities
< 100	COc1ccc(-c2coc3cc(OC4OC(CO)C(O)C(O)C4O)c(OC)c(O)c3c2=O)cc1 [Compound 14, irisolidone-7-O-β-D-glucopyranoside]	> 100	IC50 [2]: 71.2 ± 11.3 µM
> 100	O=C1C[C@@](O)(c2ccc(O)cc2)Oc2cc(O)cc(O[C@@H]3O[C@H](CO)[C@@H](O)[C@H](O)[C@H]3O)c21 [Compound 6, 2-hydroxy-naringenin-5-O-β-D-glucopyranoside]	–	–
> 100	COc1c(OC2OC(COC3OCC(O)C(O)C3O)C(O)C(O)C2O)cc2occ(-c3ccc(O)cc3)c(=O)c2c1O [Compound 15, tectorigenin-7-O-β-D-xylopyranosyl-(1→6)-O-β-D-glucopyronoside]	–	–
